Values joined by “and” are separate entries in the source; they are usually repeats but may differ in a detail not shown here. Equal values may be shown once. Inconclusive results and toxic doses are left out. The calls were made as follows: active = survival T/C of 150% or more; inactive = T/C below 125% in these data.
System: P1534 leukemia ip, CD2F1 mice, survival T/C
Experiment: NCI In Vivo Anticancer Drug Screen. Data for tumor model P1534 Leukemia (intraperitoneal) in CD2F1 (CDF1) mice
Details: endpoint: mean survival time, higher = longer survival
Method: The antitumor activity of compounds was measured in mice bearing transplantable tumors. Survival or tumor size were measured and the results are expressed as the measurement made in the treated group (T) divided by the measurement made in the vehicle treated control group (C). The tumor model used in this assay is P1534 Leukemia (intraperitoneal) in CD2F1 (CDF1) mice

[1] = dose: 3.13 mg/kg/injection, schedule: Q01DX010 (ip), vehicle: saline
[2] = dose: 6.25 mg/kg/injection, schedule: Q01DX010 (ip), vehicle: saline
[3] = dose: 12.5 mg/kg/injection, schedule: Q01DX010 (ip), vehicle: saline
[4] = dose: 25.0 mg/kg/injection, schedule: Q01DX010 (ip), vehicle: saline
[5] = dose: 20.0 mg/kg/injection, schedule: Q01DX010 (ip), vehicle: saline
[6] = dose: 40.0 mg/kg/injection, schedule: Q01DX010 (ip), vehicle: saline

Measured: T/C

COc1ccc2cc3[n+](cc2c1OC)CCc1cc2c(cc1-3)OCO2
inactive: dose: 1.56 mg/kg/injection, schedule: Q01DX010 (ip), vehicle: saline 106 % of control | [1] 106 % of control | [2] 110 % of control | [3] 123 % of control

CCCNc1ncnc2c1cnn2C
inactive: [1] 100 % of control | [2] 103 % of control and 100 % of control | [3] 103 % of control and 107 % of control | [4] 107 % of control and 100 % of control

C[C@]12CCC(=O)C[C@H]1CC[C@@H]1[C@@H]2CC[C@@]2(C)[C@H]1CC[C@]2(C)O
inactive: dose: 50.0 mg/kg/injection, schedule: Q01DX010 (sc), vehicle: steriod suspending solution 100 % of control | dose: 100.0 mg/kg/injection, schedule: Q01DX010 (sc), vehicle: steriod suspending solution 100 % of control | dose: 200.0 mg/kg/injection, schedule: Q01DX010 (sc), vehicle: steriod suspending solution 96 % of control | dose: 400.0 mg/kg/injection, schedule: Q01DX010 (sc), vehicle: steriod suspending solution 96 % of control

CC(=O)NNC(=O)c1ccccn1
inactive: dose: 110.0 mg/kg/injection, schedule: Q01DX010 (ip), vehicle: water 100 % of control | dose: 120.0 mg/kg/injection, schedule: Q01DX010 (ip), vehicle: water 107 % of control | dose: 140.0 mg/kg/injection, schedule: Q01DX010 (ip), vehicle: water 98 % of control | dose: 160.0 mg/kg/injection, schedule: Q01DX010 (ip), vehicle: water 112 % of control

CN1CCN(CCCN2c3ccccc3Sc3ccc(C(F)(F)F)cc32)CC1
inactive: [5] 107 % of control | [6] 115 % of control

CC[C@]12C=CCN3CC[C@@]4(c5ccc(OC)cc5N(C)[C@H]4[C@@](O)(C(=O)OC)[C@@H]1OC(C)=O)[C@@H]32
inactive: dose: 7.5 mg/kg/injection, schedule: Q01DX010 (ip), vehicle: saline 93 % of control | dose: 15.0 mg/kg/injection, schedule: Q01DX010 (ip), vehicle: saline 93 % of control | dose: 30.0 mg/kg/injection, schedule: Q01DX010 (ip), vehicle: saline 96 % of control | dose: 60.0 mg/kg/injection, schedule: Q01DX010 (ip), vehicle: saline 86 % of control

O=C(CNC(=O)OCc1ccccc1)NCCCCCCNCCCCCCNC(=O)CNC(=O)OCc1ccccc1
inactive: [4] 100 % of control | dose: 50.0 mg/kg/injection, schedule: Q01DX010 (ip), vehicle: saline 107 % of control | dose: 100.0 mg/kg/injection, schedule: Q01DX010 (ip), vehicle: saline 103 % of control | dose: 200.0 mg/kg/injection, schedule: Q01DX010 (ip), vehicle: saline 100 % of control

CCN(CC)CCNc1ccc(C)c2sc3ccccc3c(=O)c12
inactive: [5] 103 % of control | [6] 103 % of control | dose: 80.0 mg/kg/injection, schedule: Q01DX010 (ip), vehicle: saline 107 % of control

CC(=O)OC(C)(C)/C=C/C(=O)[C@](C)(O)[C@H]1[C@H](O)C[C@@]2(C)[C@@H]3CC=C4[C@@H](CC[C@H](O)C4(C)C)[C@]3(CO)C(=O)C[C@]12C
inactive: dose: 0.16 mg/kg/injection, schedule: Q01DX010 (ip), vehicle: saline 103 % of control | dose: 0.25 mg/kg/injection, schedule: Q01DX010 (ip), vehicle: saline 100 % of control | dose: 0.38 mg/kg/injection, schedule: Q01DX010 (ip), vehicle: saline 103 % of control | dose: 0.57 mg/kg/injection, schedule: Q01DX010 (ip), vehicle: saline 103 % of control

C=C(C(=O)OC1CC2CCC(C1)N2C)c1ccccc1 (configuration not stated)
inactive: dose: 1.25 mg/kg/injection, schedule: Q01DX010 (ip), vehicle: saline 92 % of control | dose: 2.5 mg/kg/injection, schedule: Q01DX010 (ip), vehicle: saline 92 % of control | dose: 5.0 mg/kg/injection, schedule: Q01DX010 (ip), vehicle: saline 100 % of control | dose: 10.0 mg/kg/injection, schedule: Q01DX010 (ip), vehicle: saline 107 % of control
